Results taken from patent publication US11647752B2 (priority 2020, dated 2023).
Several values for one entry are separate records, joined by “and”; a condition that tells them apart may be missing. Equal entries are not always repeated. Where two headings read alike, the source gives them in different places.

Legend:
[1] = tested on: Ralstonia solanacearum in tobacco roots; assay type: in vivo; details: for Amount of Ralstonia solanacearum in the roots: 12 h of inoculation
[2] = tested on: Ralstonia solanacearum (tobacco bacterial wilt pathogen HF-1-1); assay type: cell-based; details: 50 μL per hole, 37° C., 12 h
[3] = tested on: Ralstonia solanacearum (pathogen HF-1-1); assay type: cell-based; details: NaHS 0, 200, 400, 600, 800 mg/L in liquid culture, 12 h, 37° C.

Row | Structure (SMILES) | Amount of Ralstonia solanacearum in the roots ([1]; N- (10 mL 0.8 mmol hydroxylamine)) | Diameter of inhibition zone ([2]; NaHS 200 mg/L) | Diameter of inhibition zone ([2]; NaHS 400 mg/L) | Diameter of inhibition zone ([2]; NaHS 600 mg/L) | Diameter of inhibition zone ([2]; NaHS 800 mg/L) | Biomass of the pathogen HF-1-1 (OD600) [3] | Amount of Ralstonia solanacearum in the roots ([1]; N200 (NaHS 200 mg/L)) | Content of Ralstonia solanacearum in the tobacco roots compared with CK and N- groups ([1]; N200-N800 (NaHS 200-800 mg/L), 24 h and 36 h) | Amount of Ralstonia solanacearum in the roots ([1]; N400 (NaHS 400 mg/L)) | Amount of Ralstonia solanacearum in the roots ([1]; N600 (NaHS 600 mg/L)) | Amount of Ralstonia solanacearum in the roots ([1]; N800 (NaHS 800 mg/L)) | Decrease of number of Ralstonia solanacearum colonized on tobacco roots compared with control group ([1]; NaHS 800 mg/L, 36 hours) [%]
1 | NO [H2S inhibitor, hydroxylamine, reference compound] | 1.38 ×10^4 CFU/g | – | – | – | – | – | – | – | – | – | – | –
2 | [Na+].[SH-] [NaHS] | – | 11.20±0.72 mm and 11.20 mm | 14.61±0.93 mm and 14.61 mm | 19.43±0.41 mm and 19.43 mm | 21.21±1.22 mm and 21.21 mm | decreased with the increase of its concentration | 1.36 ×10^4 CFU/g | relatively lower | 1.39 ×10^4 CFU/g | 1.40 ×10^4 CFU/g | 1.37 ×10^4 CFU/g | 98.32
